The results in this text go back to patent US20230303540A1 (Merck Sharp & Dohme LLC, priority 2020, published 2023).

In this assay the target is GST-tagged truncated human mutant G2019S LRRK2 (Homo sapiens, UniProt Q5S007, G2019S). Put plainly: LRRK2 G2019S Km ATP LanthaScreen assay. It is filed as biochemical. The following applies: 134 μM ATP (Km ATP), LRRKtide substrate, mean IC50 values; read-out: LRRK2 pIC50 (converted). Put shortly: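 LanthaScreen TR-FRET read with fluorescein-LRRKtide and 134 μM ATP (Km) in Tris pH 8.5/10 mM MgCl2 buffer. The enzyme was preincubated 15 min with compound at room temperature, and the reaction ran 90 min at ambient temperature. Stopped with EDTA plus Tb anti-phospho-LRRKtide antibody; the 520/495 nm ratio gave a 4-parameter logistic IC50, mean of several runs.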
Consider `Cc1c(Nc2ncc3cc(Cl)c(N4CCN(C5(C)COCC5O)CC4)cc3n2)cnn1C1CC1` (single isomer, unassigned) [Ex-6.22, (3S,4S) or (3R,4R) 4-(4-{6-chloro-2-[(1-cyclopropyl-5-methyl-1H-pyrazol-4-yl)amino]quinazolin-7-yl}piperazin-1-yl)-4-methyloxolan-3-ol], for which the IC50 was 33.5 nM. Next, `Cc1c(Nc2ncc3cc(Cl)c(N4CCN(C5COC5)[C@@H](C)C4)cc3n2)cnn1CCF` [Ex-4.14, 6-chloro-N-[1-(2-fluoroethyl)-5-methyl-1H-pyrazol-4-yl]-7-[(3S)-3-methyl-4-(oxetan-3-yl)piperazin-1-yl]quinazolin-2-amine]: 0.969 nM; `CC1(N2CCN(c3cc4nc(Nc5cnn(C6CC6)c5Cl)ncc4cc3Cl)CC2)COC1` [Ex-4.17, 6-chloro-N-(5-chloro-1-cyclopropyl-1H-pyrazol-4-yl)-7-[4-(3-methyloxetan-3-yl)piperazin-1-yl]quinazolin-2-amine]: 2.32 nM. For `COCC12CC(n3cc(Nc4ncc5cc(Cl)c(N6CCC7(CCCO7)CC6)cc5n4)cn3)(C1)C2` [Ex-3.34, 6-chloro-N-{1-[3-(methoxymethyl)bicyclo[1.1.1]pentan-1-yl]-1H-pyrazol-4-yl}-7-(1-oxa-8-azaspiro [4.5]decan-8-yl)quinazolin-2-amine], the IC50 is 0.594 nM.

For `O[C@H]1COCC12CCN(c1cc3nc(Nc4cnn(C5CC5)c4Cl)ncc3cc1Cl)CC2` [Ex-3.2], the IC50 is 1.06 nM. Under `COCC12CC(n3cc(Nc4ncc5cc(Cl)c(N6CCC7(CC6)COC(CO)C7)cc5n4)cn3)(C1)C2` (single isomer, unassigned) [Ex-3.17, (R) or (S)-{8-[6-chloro-2-({1-[3-(methoxymethyl)bicyclo[1.1.1]pentan-1-yl]-1H-pyrazol-4-yl}amino)quinazolin-7-yl]-2-oxa-8-azaspiro[4.5]decan-3-yl}methanol] stands 2.28 nM. Under `Cc1c(Nc2ncc3cc(Cl)c(N4CCN(C5(C)COCC5O)CC4)cc3n2)cnn1C1CC1` (single isomer, unassigned) [Ex-6.18, (3S,4S) or (3R,4R) 4-(4-{6-chloro-2-[(1-cyclopropyl-5-methyl-1H-pyrazol-4-yl)amino]quinazolin-7-yl}piperazin-1-yl)-4-methyloxolan-3-ol] stands 0.322 nM. Regarding `CC1(O)CC2(CN(c3cc4nc(Nc5cnn(C6CC6)c5Cl)ncc4cc3Cl)C2)C1` [Ex-4.28, 2-{6-chloro-2-[(5-chloro-1-cyclopropyl-1H-pyrazol-4-yl)amino]quinazolin-7-yl}-6-methyl-2-azaspiro[3.3]heptan-6-ol], the IC50 is 1.05 nM. In the case of `Cc1cc2cnc(Nc3cnn(C45CC(C4)C5)c3Cl)nc2cc1N1CCN(C2COCC2O)CC1` (single isomer, unassigned) [Ex-13.3, (3S,4S) or (3R, 4R)-4-(4-(2-((1-(bicyclo[1.1.1]pentan-1-yl)-5-chloro-1H-pyrazol-4-yl)amino)-6-methylquinazolin-7-yl)piperazin-1-yl)tetrahydrofuran-3-ol], the IC50 was 6.98 nM. Consider `Cc1cc2cnc(Nc3cnn(C4CC4(F)F)c3Cl)nc2cc1N1CCN([C@H]2COC[C@H]2O)CC1` (single isomer, unassigned) [Ex-5.1, (3S, 4S) or (3R, 4R) 4-(4-(2-((5-Chloro-1-(2,2-(R) or (S)difluorocyclopropyl)-1H-pyrazol-4-yl)amino)-6-methylquinazolin-7-yl)piperazin-1-yl)tetrahydrofuran-3-ol], for which the IC50 was 0.105 nM. Next, `Cc1c(Nc2ncc3cc(Cl)c(N4CCN(C5COCC5O)CC4)cc3n2)cnn1CC(F)F` (single isomer, unassigned) [Ex-6.25, (3S,4S) or (3R,4R) 4-[4-(6-chloro-2-{[1-(2,2-difluoroethyl)-5-methyl-1H-pyrazol-4-yl]amino}quinazolin-7-yl)piperazin-1-yl]oxolan-3-ol]: 0.418 nM.
